This is an account of results in patent publication US20230248647A1, “SILICA HYDROGEL COMPOSITE AND ITS USE” (DelSiTech Oy, priority 2020, published 2023).

Molecules are shown by their SMILES. Structures can show the parent of a compound that is named as a salt.

Series [1] is described as follows: In vivo pharmacokinetic experiment, oral and subcutaneous administration. More on the design: species or system male SD (Sprague Dawley) rats. To be noted: for AUC(0-t) / Cmax / Tmax / half-life: male, Sprague-Dawley, rat, plasma. Here is the method: Silica hydrogel composite #29HG was used as a depot for male SD (Sprague Dawley) rats (5 animals/dosing group) in subcutaneous (SC+a letter A-E referring to different groups) administration of Anagrelide, and for oral administration (PO). The oral dose was prepared by adding 18.00 mg of Anagrelide hydrochloride into […] of 10 w-% ethanol with vortexing and sonication to obtain a suspension with concentration of 0.5 mg/ml of Anagrelide hydrochloride. The oral dose (5 mg/kg) was provided only in 12 h study, and it was freshly made just prior to dosing. Both 12 hour and 10 d pharmacokinetic experiments were conducted for the silica hydrogel composite for 2 different anagrelide hydrochloride doses (17.5 mg/kg and 35 mg/kg), and 28 d experiment only for the dose of 35 mg/kg.
The bioanalysis was conducted by using LC-MS/MS. The desired serial concentrations of working solutions were achieved by diluting stock solution of analyte with 50% acetonitrile in water solution. 5 μL of working solutions (2, 5, 10, 20, 50, 100, 500, 1000, 5000, 10000 ng/mL) were added to 50 μL of the male blank SD Rat plasma to achieve calibration standards of 0.2-1000 ng/mL (0.2, 0.5, 1, 2, 5, 10, 50, 100, 500, 1000 ng/mL) in a total volume of 55 μL. Four quality control samples at 0.5 ng/mL, 1 ng/mL, 50 ng/mL and 800 ng/mL for plasma were prepared independently of those used for the calibration curves. These QC samples were prepared on the day of analysis in the same way as calibration standards. 55 μL of standards, 55 μL of QC samples and 55 μL of unknown samples (50 μL of plasma with 5 μL of blank solution) were added to 200 μL of acetonitrile containing IS mixture for precipitating protein respectively. Then the samples were vortexed for 30 s. After centrifugation at 4 degree Celsius, 4700 rpm for 15 min, the supernatant was diluted 3 times with water, and 10 μL of diluted supernatant was injected into the LC-MS/MS system for quantitative analysis. The mean plasma concentrations of Anagrelide Hydrochloride for 12 h experiment are shown in FIG. 4, and corresponding results for 10 d experiment in FIG. 5, and for 28 d experiment in FIG. 6.

A short description of series [2]: Particle size distribution analysis by laser diffraction (Sympatec HELOS H3973). Type of series: physicochemical. The following applies: micronized particles. Here is the method: For particle size distribution analysis, the non-active silica particles (which were used in silica hydrogel composite #29HG) were dispersed in ethanol, and the analysis was conducted using a Sympatec HELOS H3973 laser diffraction instrument. The particle size distribution for non-active silica particles is shown in Table 2 (D10, D50 and D90 means that 10%, 50%, and 90% of the particles are equal or smaller than the indicated size)
The particles size distribution analysis for micronized (described in Example 1) Anagrelide HCl particles was also conducted using a Sympatec HELOS H3973 laser diffraction instrument. The particle size was mainly between 1 and 200 micrometers, where D10 was 16.6 micrometers, D50 80.4 micrometers, and D90 155 micrometers.

A short description of a further series: Solubility in water. To be noted: corresponds to 0.019 mg/ml. Format: physicochemical.
The conditions of series [3]: cited from earlier work.
Setting [4] is: po, 5 mg/kg, oral suspension 5 mg/kg, 12 h experiment.
Where [5] appears, read: sc, 17.5 mg/kg, SCA, subcutaneous silica hydrogel composite #29HG depot 17.5 mg/kg, 12 h experiment.
[6] abbreviates: sc, 17.5 mg/kg, SCB, subcutaneous silica hydrogel composite #29HG depot 17.5 mg/kg, 10 d experiment.
Where [7] appears, read: sc, 35 mg/kg, SCC, subcutaneous silica hydrogel composite #29HG depot 35 mg/kg, 12 h experiment.
Where [8] appears, read: sc, 35 mg/kg, SCD, subcutaneous silica hydrogel composite #29HG depot 35 mg/kg, 10 d experiment.
[9] abbreviates: sc, 35 mg/kg, SCE, subcutaneous silica hydrogel composite #29HG depot 35 mg/kg, 28 d experiment.

Usually AUC(0-t) stands for exposure summed from dosing to a finite time, without extrapolation to infinity. Read a low AUC(0-t) as low exposure. The term Cmax denotes the peak of the concentration-time curve. What is called Tmax is the time from dosing to the highest level. As a reminder, the half-life is the time in which the quantity being followed falls by half. The low end stands for rapid decline, the high end for slow decline. On to `O=C1CN2Cc3c(ccc(Cl)c3Cl)N=C2N1` [Anagrelide HCl, Anagrelide hydrochloride], for which the AUClast/D stood at 64 ± 47 ng·h/mL per mg/kg in series [1] (PO, oral suspension 5 mg/kg, 12 h experiment); 1.67 ± 0.4 ng·h/mL per mg/kg in series [1] (SCA, subcutaneous silica hydrogel composite #29HG depot 17.5 mg/kg, 12 h experiment); 29.8 ± 12.5 ng·h/mL per mg/kg in series [1] (SCB, subcutaneous silica hydrogel composite #29HG depot 17.5 mg/kg, 10 d experiment); 0.99 ± 0.3 ng·h/mL per mg/kg in series [1] (SCC, subcutaneous silica hydrogel composite #29HG depot 35 mg/kg, 12 h experiment); 21.4 ± 9.1 ng·h/mL per mg/kg in series [1] (SCD, subcutaneous silica hydrogel composite #29HG depot 35 mg/kg, 10 d experiment). Moreover, the clinical symptoms result in series [1] (SD rats, entire experiment (PO 5 mg/kg; SC #29HG depot 17.5 and 35 mg/kg)) is “No abnormal clinical symptoms were observed”. In addition, in series [1] (delivered as solid particles in silica hydrogel composite, SC, SD rats), the “release behaviour from plasma concentration results” value was “sustained and controlled release is achieved”. In addition, the AUC(0-t) in series [1] (setting [4]) worked out at 320 ± 235 ng·h/mL; in series [1] (setting [5]), 29.2 ± 7.1 ng·h/mL; in series [1] (setting [6]) it was 521 ± 218 ng·h/mL; in series [1] (setting [7]), 34.5 ± 10.6 ng·h/mL; in series [1] (setting [8]) it was 749 ± 320 ng·h/mL; in series [1] (setting [9]), 1600 ng·h/mL. Moreover, the Cmax in series [1] (setting [4]) is 62 ± 47 ng/mL; in series [1] (setting [5]), 4.55 ± 1.41 ng/mL; in series [1] (setting [6]) it was 3.58 ± 1.51 ng/mL; in series [1] (setting [7]) it was 6.3 ± 4.2 ng/mL; in series [1] (setting [8]), 5.29 ± 2.28 ng/mL. The Tmax in series [1] (setting [4]) amounted to 3 ± 2 h; in series [1] (setting [5]), 1.1 ± 0.55 h; in series [1] (setting [6]), 96 ± 102 h; in series [1] (setting [7]) it was 0.8 ± 0.27 h; in series [1] (setting [8]), 154 ± 79 h; in series [1] (setting [9]) it was 188 h. For the same molecule, the half-life in series [1] (setting [4]) is 1.3 ± 0.27 h; in series [1] (setting [5]), 4.92 ± 0.85 h; in series [1] (setting [7]), 7.03 ± 1.04 h; in series [1] (setting [9]), 167 h. In addition, the D10 in series [2] came to 16.6 micrometers. Also, the D50 in series [2] is on record as 80.4 micrometers. The D90 in series [2] is listed as 155 micrometers. For the same molecule, the “solubility in water as weight-%” value in “Solubility in water” stood at 0.0019 weight-%. Also, the solubility in water in series [3] was 19 µg/mL.

Regarding `O=C1CN2Cc3c(ccc(Cl)c3Cl)N=C2N1` [Anagrelide], the “solubility of base form compared with Anagrelide HCl” value in series [3] (water) is recorded as “even lower solubility than Anagrelide HCl”.
